Results as given in PMC10144301, “Antiseizure Properties of Histamine H3 Receptor Antagonists Belonging 3,4-Dihydroquinolin-2(1H)-Ones” (Molecules, 2023).
Several values for one entry are separate records, joined by “and”; a condition that tells them apart may be missing. Equal values may be shown once.

Assays:
[1] = system: PTZ-induced seizure model; test: Pentylenetetrazole (PTZ)-induced seizure model; format: in vivo; conditions: mice, i.p., PTZ 85 mg/kg s.c.
Experimental: One of the two test models is the MES seizure model, another is the PTZ-induced seizure model. […] In addition, the administration of this dosage can minimize the impact of other possible side effects such as central inhibition and cardiac toxicity. […] In addition, the tested dose of VPA was 300 mg/kg. The PTZ model was usually used to screen the antiepileptic candidates for the absence of seizures. In this work, compounds 2a-2i, 3a-3c, and 4a-4b were also evaluated for their antiseizure action in the PTZ model in mice, while using VPA as the positive drug. […] The failure of synthesized compounds in the PTZ model is expected because our previously reported H3R inhibitors were also ineffective in the PTZ model. […] A considerable increase in histamine levels was found in the brain after MES-induced seizures, whereas a tendency toward a decrease in histamine levels was observed after PTZ-kindled convulsions. […] The neurological safety of the compounds 2h, 4a, and 4b was evaluated by the rotarod test. In the MES test, the definition of protection was the reduction or vanishing of the THLE in mice. […] The antiseizure activities of the compounds in the PTZ test were evaluated by comparing the convulsion scores in mice between taking the compounds or not. […] In addition, the THLE was recorded and compared with that of the mice treated by compound 4a alone. […]

[2] = system: maximal electroshock seizure (MES) model; test: Maximal electroshock seizure (MES) model; format: in vivo; conditions: mice; for Duration of tonic hind limb extension (THLE), protection in MES model: i.p., compared to control group
Experimental: One of the two test models is the MES seizure model, another is the PTZ-induced seizure model. […] In addition, the administration of this dosage can minimize the impact of other possible side effects such as central inhibition and cardiac toxicity. […] In addition, the tested dose of VPA was 300 mg/kg. It could be seen that all animals in the control group experienced hindlimb stiffness after the electrical stimulation in the MES model. In the treated group, the definition of protection was the reduction or vanishing of the tonic hind limb extension (THLE) in mice. […] The neurological safety of the compounds 2h, 4a, and 4b was evaluated by the rotarod test. In the MES test, the definition of protection was the reduction or vanishing of the THLE in mice. In the PTZ test, the seizures were induced through the subcutaneous administration of PTZ (85 mg/kg). The antiseizure activities of the compounds in the PTZ test were evaluated by comparing the convulsion scores in mice between taking the compounds or not. VPA and PIT were used as positive drugs. To explore the anticonvulsive mechanism, compound 4a (10 mg/kg) was co-injected with RAMH (10 mg/kg). In addition, the THLE was recorded and compared with that of the mice treated by compound 4a alone. The detailed experimental operations in the MES, PTZ, and rotarod tests refer to our previous paper. All the animal experiments were carried out on 4-week-old KunMing male mice weighing from 20 to 25 g. The mice were housed collectively in polycarbonate cages in groups of 30, where they were maintained on a 12 h light/dark cycle in a temperature controlled (25 ± 2 °C) laboratory with free access to food and water. In the MES and PTZ models, seven animals were used in each group. In the rotarod test, three animals were used in each group. Each animal was used only once. All the experiments referring to animals were applied according to the Guide for the Care and Use of Laboratory Animals and were approved by the Medical Ethics Committee of Jinggangshan University, approval number: 220811002.

[3] = system: electrical kindling model of epilepsy; conditions: cited from earlier work
[4] = Rotarod test for neurotoxicity; format: in vivo; conditions: rotarod test, mice, i.p., three animals per group
Experimental: A rotarod test was carried out to estimate the neurological safety of compounds 2h, 4a, and 4b.
The neurological safety of the compounds 2h, 4a, and 4b was evaluated by the rotarod test. In the MES test, the definition of protection was the reduction or vanishing of the THLE in mice. In the PTZ test, the seizures were induced through the subcutaneous administration of PTZ (85 mg/kg). The antiseizure activities of the compounds in the PTZ test were evaluated by comparing the convulsion scores in mice between taking the compounds or not. VPA and PIT were used as positive drugs. To explore the anticonvulsive mechanism, compound 4a (10 mg/kg) was co-injected with RAMH (10 mg/kg). In addition, the THLE was recorded and compared with that of the mice treated by compound 4a alone. The detailed experimental operations in the MES, PTZ, and rotarod tests refer to our previous paper. All the animal experiments were carried out on 4-week-old KunMing male mice weighing from 20 to 25 g. The mice were housed collectively in polycarbonate cages in groups of 30, where they were maintained on a 12 h light/dark cycle in a temperature controlled (25 ± 2 °C) laboratory with free access to food and water. In the MES and PTZ models, seven animals were used in each group. In the rotarod test, three animals were used in each group. Each animal was used only once. All the experiments referring to animals were applied according to the Guide for the Care and Use of Laboratory Animals and were approved by the Medical Ethics Committee of Jinggangshan University, approval number: 220811002.

[5] = system: maximal electroshock seizure (MES) model; design: method as in PMID 33325568; conditions: 10 mg/kg, previous work; cited from earlier work
[6] = system: PTZ-induced seizure model; design: method as in PMID 27853355; conditions: Sadek's study; cited from earlier work
[7] = system: photosensitive epilepsy; conditions: dose of 30 mg or 60 mg; cited from earlier work

Row | Structure (SMILES) | Protection against seizures induced by PTZ (seizure score) ([1]; 300 mg/kg) | Duration of tonic hind limb extension (THLE), protection in MES model ([2]; 300 mg/kg) | Protection against seizures induced by PTZ (seizure score) ([1]; 10 mg/kg) | Antiseizure activity in electrical kindling model [3] | Duration of tonic hind limb extension (THLE), protection in MES model ([2]; 10 mg/kg) | THLE induced by MES ([2]; 30 mg/kg) | Dose dependence of protection in MES model ([2]; doses of 3, 10 and 30 mg/kg) | Neurotoxicity ([4]; 10 mg/kg) | Neurotoxicity ([4]; 30 mg/kg) | Neurotoxicity ([4]; 100 mg/kg, 100 mg/kg) | Antiseizure activity [5] | Effect in PTZ model [6] | Effect on photosensitive epilepsy and EEG [7]
1 | CCCC(CCC)C(=O)[O-].[Na+] [VPA, valproic sodium, reference compound] | fully inhibited the seizure induced by PTZ | decreased the duration of THLE significantly | – | – | – | – | – | – | – | – | – | – | –
2 | Clc1ccc(CCCOCCCN2CCCCC2)cc1 [PIT, Pitolisant, reference compound] | – | – | did not exhibit protection | powerful antiseizure activity | decreased the duration of THLE significantly | fully abolished the THLE | dose-dependent antiseizure activity | 0/3 | 0/3 | no neurotoxicity and 0/3 | showed an antiseizure activity | failure | can inhibit photosensitive epilepsy
